Data on 31 compounds can be found in patent US11472788B2, “Benzoimidazoles as selective inhibitors of indoleamine 2,3-dioxygenases” (BEIGENE, LTD., priority 2017, dated 2022).

cellular IDO1 in HeLa cells, sequence (P14902 whole entry): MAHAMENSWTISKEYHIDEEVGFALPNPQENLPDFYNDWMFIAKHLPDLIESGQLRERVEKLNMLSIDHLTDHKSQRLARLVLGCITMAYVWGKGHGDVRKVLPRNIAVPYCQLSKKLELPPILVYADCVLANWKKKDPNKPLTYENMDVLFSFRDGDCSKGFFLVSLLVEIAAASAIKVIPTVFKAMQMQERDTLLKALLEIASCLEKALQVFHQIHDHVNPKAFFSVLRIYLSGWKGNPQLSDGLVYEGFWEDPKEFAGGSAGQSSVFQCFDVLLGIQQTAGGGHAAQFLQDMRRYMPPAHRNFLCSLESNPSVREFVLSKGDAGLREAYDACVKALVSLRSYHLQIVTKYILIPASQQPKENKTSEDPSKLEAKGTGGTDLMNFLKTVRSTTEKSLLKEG

The target of this test is cellular IDO1 in HeLa cells (Homo sapiens (Human), UniProt P14902). The experiment in a line: HeLa Cell-Based IDO1 Kyn (Kynurenine) Production Assay. The settings on record: IFN-γ induced IDO1, 48 hours incubation, Kyn absorbance at 480 nm. The protocol:
HeLa Cell-Based IDO1 Kyn (Kynurenine) Production Assay:
The inhibitory activity of IDO1 inhibitors is determined by using a colorimetric reaction to measure Kyn generated from L-Trp (L-Tryptophon) oxidation by cellular IDO1 in HeLa cells after induction of IDO1 expression by IFN-γ.
Hela cells were obtained from the American Type Culture Collection and recovered in 10% FBS-containing phenol red-free DMEM medium. Cells were plated onto a 96-well plate (100 μl/well) at 8000 cells per well and kept at 37° C. in a humidified incubator supplied with 5% CO2. 4 hours later, Human recombinant IFN-γ (8901SC, CST) was added to cells (final concentration 100 ng/mL) to stimulate endogenous IDOL. Compounds at different concentrations diluted in dimethylsulfoxide (DMSO) were added simultaneously with IFN-γ and 0.4 mM L-Trp. Cells were kept at 37° C. in a humidified incubator supplied with 5% CO2. After 48 hours of incubation, 100 μl supernatant from each well was removed to a new plate. The protein in the medium was precipitated with the addition of 8 μl 6N trichloroacetic acid. The plate was incubated at 60° C. for 30 minutes and then centrifugation at 2500 rpm for 10 minutes to remove sediments. 80 μl supernatants were carefully removed to a new clean plate and added with an equal volume of 2% 4-(Dimethylamino)benzaldehyde (D2004, sigma) dissolved in glacial acetic acid. The absorbance at 480 nm wavelength derived from Kyn was measured using a PHERAstar FS plate reader (BMG LABTECH). The IC5C for each compound was derived from fitting the dose-response data to the four-parameter logistic model by using XLfit software (IDBS).
The term EC50 denotes the concentration that produces a half-maximal response. In turn, `COCCNC(=O)c1ccc2[nH]c(C(C)[C@H]3CC[C@@H](c4ccnc5ccc(F)cc54)CC3)nc2c1` (stereo partly shown) [Example B216, 2-(1-((1s,4s)-4-(6-fluoroquinolin-4-yl)cyclohexyl)ethyl)-N-(2-methoxyethyl)-1H-benzo[d]imidazole-5-carboxamide] registered an EC50 of 62.9 nM. Regarding `Fc1cc2nc(C[C@H]3CC[C@@H](c4ccc(F)c5ncccc54)CC3)[nH]c2cc1F` [Example A26b, 5-((1s,4s)-4-((5,6-difluoro-1H-benzo[d]imidazol-2-yl)methyl)cyclohexyl)-8-fluoroquinoline], the EC50 came out at 205 nM. Compared with the last compound, the EC50 is about 3.3-fold higher. Turning to `CC(=O)Nc1ccc2nc([C@H](C)[C@H]3CC[C@@H](c4ccnc5ccc(F)cc54)CC3)[nH]c2c1` [Example B179, N-(2-((R)-1-((1r,4R)-4-(6-fluoroquinolin-4-yl)cyclohexyl)ethyl)-1H-benzo[d]imidazol-6-yl)acetamide], it took 36.2 nM to reach a half-maximal effect (EC50).

On to `CC(c1nc2cc(C(=O)N(C)C)ccc2[nH]1)[C@H]1CC[C@@H](c2ccnc3ccc(F)cc32)CC1` (stereo partly shown) [Example B160, 2-(1-((1s,4s)-4-(6-fluoroquinolin-4-yl)cyclohexyl)ethyl)-N,N-dimethyl-1H-benzo[d]imidazole-5-carboxamide], for which the EC50 came to 46 nM. This EC50 and that of the compound before are within 1.5-fold of each other. `C[C@@H](c1nc2c(Cl)c(F)cc(F)c2[nH]1)[C@H]1CC[C@@H](c2ccnc3ccc(F)cc32)CC1` [Example B123, 4-((1S,4s)-4-((R)-1-(4-chloro-5,7-difluoro-1H-benzo[d]imidazol-2-yl)ethyl)cyclohexyl)-6-fluoroquinoline]: the EC50 stood at 6.79 nM. Against the preceding compound, the EC50 is about 6.8-fold lower. With `Fc1ccc2nccc(C3CCN(Cc4nc5cc(Cl)ccc5[nH]4)CC3)c2c1` [Example A39, 4-(1-((5-chloro-1H-benzo[d]imidazol-2-yl)methyl)piperidin-4-yl)-6-fluoroquinoline] the figure was 150 nM. As for `NC(=O)c1ccc2[nH]c([C@H]3CC[C@@H](c4ccnc5ccc(F)cc54)CC3)nc2c1` [Example C9b, 2-((1s,4s)-4-(6-fluoroquinolin-4-yl)cyclohexyl)-1H-benzo[d]imidazole-5-carboxamide], the figure is 1240 nM. As to `Fc1ccc2nccc([C@H]3CC[C@@H](Cc4nc5cc(OC6CC6)ccc5[nH]4)CC3)c2c1` [Example A8b, 4-((1s,4s)-4-((5-cyclopropoxy-1H-benzo[d]imidazol-2-yl)methyl)cyclohexyl)-6-fluoroquinoline], a half-maximal effect (EC50) was put at 50 nM. This EC50 is about 25-fold lower than that of the compound before. As to `CCOC(=O)c1cc2nc([C@H](C)[C@H]3CC[C@@H](c4ccnc5ccc(F)cc54)CC3)[nH]c2cc1C` [Example B201, ethyl 2-((R)-1-((1s,4S)-4-(6-fluoroquinolin-4-yl)cyclohexyl)ethyl)-6-methyl-1H-benzo[d]imidazole-5-carboxylate], the EC50 came to 1.6 nM. This EC50 lies about 31-fold lower than the previous one.

On to `COC(=O)c1ccc2[nH]c([C@H]3CC[C@H](c4ccnc5ccc(F)cc54)CC3)nc2c1` [Example C8a, methyl 2-((1r,4r)-4-(6-fluoroquinolin-4-yl)cyclohexyl)-1H-benzo[d]imidazole-5-carboxylate], for which the half-maximal effective concentration (EC50) was found to be 1200 nM. The compound `C[C@@H](c1nc2cc(Cl)c(F)cc2[nH]1)[C@H]1CC[C@@H](c2ccnc3ccc(F)cc32)CC1` [Example B2, 4-((1S,4s)-4-((R)-1-(5-chloro-6-fluoro-1H-benzo[d]imidazol-2-yl)ethyl)cyclohexyl)-6-fluoroquinoline] had a concentration giving a half-maximal response (EC50) of 0.95 nM. This EC50 lies about 1300-fold lower than the previous one. With `COC(=O)c1c(F)ccc2[nH]c([C@H](C)[C@H]3CC[C@@H](c4ccnc5ccc(F)cc54)CC3)nc12` [Example B199, methyl 5-fluoro-2-((R)-1-((1s,4S)-4-(6-fluoroquinolin-4-yl)cyclohexyl)ethyl)-1H-benzo[d]imidazole-4-carboxylate] the figure was 21.9 nM; with `Fc1ccc2nccc(C3CCC(c4nc5cc(Br)ccc5[nH]4)CC3)c2c1` (stereo not shown) [Example C4, 4-(4-(5-bromo-1H-benzo[d]imidazol-2-yl)cyclohexyl)-6-fluoroquinoline], 9.1 nM; with `C[C@@H](c1nc2ccc(C3=NCCO3)cc2[nH]1)[C@H]1CC[C@@H](c2ccnc3ccc(F)cc32)CC1` [Example B197, 2-(2-((R)-1-((1s,4S)-4-(6-fluoroquinolin-4-yl)cyclohexyl)ethyl)-1H-benzo[d]imidazol-6-yl)-4,5-dihydrooxazole], 8.1 nM. On to `Fc1ccc2nccc([C@H]3CC[C@@H](CCc4nc5cc(Cl)ccc5[nH]4)CC3)c2c1` [Example C11, 4-((1r,4r)-4-(2-(5-chloro-1H-benzo[d]imidazol-2-yl)ethyl)cyclohexyl)-6-fluoroquinoline], for which the concentration giving a half-maximal response (EC50) came out at 12 nM. As for `CC(c1nc2cc(-c3ccccc3)c(F)cc2[nH]1)C1CCC(c2ccnc3ccc(F)cc23)CC1` (stereo not shown) [B181], the midpoint of the response, the EC50, lay at 2.7 nM. This EC50 lies about 4.4-fold lower than the previous one. `Fc1ccc2nccc(C3CCC(CCc4nc5cc(C6CC6)ccc5[nH]4)CC3)c2c1` (stereo not shown) [Example C10, 4-(4-(2-(5-cyclopropyl-1H-benzo[d]imidazol-2-yl)ethyl)cyclohexyl)-6-fluoroquinoline] gave an EC50 of 7 nM.

As for `COC(=O)c1ccc2[nH]c([C@H]3CC[C@@H](c4ccnc5ccc(F)cc54)CC3)nc2c1` [Example C8b, methyl 2-((1s,4s)-4-(6-fluoroquinolin-4-yl)cyclohexyl)-1H-benzo[d]imidazole-5-carboxylate], the response was half-maximal at 37 nM (EC50). Compared with the last compound, the EC50 is about 5.3-fold higher. For the compound `CC(c1nc2c(ccc3ncccc32)[nH]1)[C@H]1CC[C@@H](c2ccnc3ccc(F)cc32)CC1` (stereo partly shown) [B150], the midpoint of the response, the EC50, lay at 10.9 nM. In the case of `COC(=O)c1cc2nc(C(C)[C@H]3CC[C@@H](c4ccnc5ccc(F)cc54)CC3)[nH]c2c(F)c1F` (stereo partly shown) [B213], the midpoint of the response, the EC50, lay at 1.8 nM. With `Fc1ccc2nccc([C@H]3CC[C@@H](c4nc5cc(C6CC6)ccc5[nH]4)CC3)c2c1` [Example C6b, 4-((1s,4s)-4-(5-cyclopropyl-1H-benzo[d]imidazol-2-yl)cyclohexyl)-6-fluoroquinoline] the figure was 14 nM.

`CC(c1nc2ccc(C(=O)NC3COC3)cc2[nH]1)[C@H]1CC[C@@H](c2ccnc3ccc(F)cc32)CC1` (stereo partly shown) [B214] registered an EC50 of 84 nM. In turn, `Fc1ccc2nccc([C@H]3CC[C@H](Cc4nc5cc(OC6CC6)ccc5[nH]4)CC3)c2c1` [Example A8a, 4-((1r,4r)-4-((5-cyclopropoxy-1H-benzo[d]imidazol-2-yl)methyl)cyclohexyl)-6-fluoroquinoline] yielded a concentration giving a half-maximal response (EC50) of 528 nM. `Fc1ccc2nccc([C@H]3CC[C@@H](Cc4nc5cc(C(F)(F)F)ccc5[nH]4)CC3)c2c1` [Example A3b, 6-fluoro-4-((1r,4r)-4-((5-(trifluoromethyl)-1H-benzo[d]imidazol-2-yl)methyl)cyclohexyl)quinoline] returned an EC50 of 6.8 nM. `CC(c1nc2ccc(C(=O)O)cc2[nH]1)[C@H]1CC[C@@H](c2ccnc3ccc(F)cc32)CC1` (stereo partly shown) [Example B163, 2-(1-((1s,4s)-4-(6-fluoroquinolin-4-yl)cyclohexyl)ethyl)-1H-benzo[d]imidazole-6-carboxylic acid] returned a concentration for a half-maximal effect (EC50) of 567 nM. With `CCOC(=O)c1ccc2[nH]c([C@H](C)[C@H]3CC[C@@H](c4ccnc5ccc(F)cc54)CC3)nc2c1` [Example B17, ethyl 2-((R)-1-((1s,4S)-4-(6-fluoroquinolin-4-yl)cyclohexyl)ethyl)-1H-benzo[d]imidazole-5-carboxylate] the figure was 0.58 nM; with `C[C@@H](c1nc2cc(Cl)c(F)cc2[nH]1)[C@H]1CC[C@@H](c2ccnc3ccc(F)cc32)CC1` [Example B2a, 4-((1R,4s)-4-((S)-1-(5-chloro-6-fluoro-1H-benzo[d]imidazol-2-yl)ethyl)cyclohexyl)-6-fluoroquinoline], 0.38 nM; with `C[C@@H](c1nc2c(ccc3ccccc32)[nH]1)[C@H]1CC[C@H](c2ccnc3ccc(F)cc32)CC1` [Example B212, 2-((R)-1-((1r,4R)-4-(6-fluoroquinolin-4-yl)cyclohexyl)ethyl)-3H-naphtho[1,2-d]imidazole], 27.9 nM. In turn, `CCOC(=O)c1cc2nc([C@@H](C)C3CCC(c4ccnc5ccc(F)cc45)CC3)[nH]c2cc1C` (stereo partly drawn) [Example B200, ethyl 2-((S)-1-((1s,4S)-4-(6-fluoroquinolin-4-yl)cyclohexyl)ethyl)-6-methyl-1H-benzo[d]imidazole-5-carboxylate] came in with a concentration for a half-maximal effect (EC50) of 73.3 nM. `Cc1c(Br)ccc2[nH]c(C[C@H]3CC[C@H](c4ccnc5ccc(F)cc54)CC3)nc12` [Example A11a, 4-((1r,4r)-4-((5-bromo-4-methyl-1H-benzo[d]imidazol-2-yl)methyl)cyclohexyl)-6-fluoroquinoline]: the concentration giving a half-maximal response (EC50) came to 135 nM.

Compound `Fc1ccc2nccc([C@H]3CC[C@H](c4nc5cc(F)c(F)cc5[nH]4)CC3)c2c1` [Example C7a, 4-((1r,4r)-4-(5,6-difluoro-1H-benzo[d]imidazol-2-yl)cyclohexyl)-6-fluoroquinoline] displayed an EC50 of 1360 nM.
